Reference: article PMC10281575, “PfCRT mutations conferring piperaquine resistance in falciparum malaria shape the kinetics of quinoline drug binding and transport” (PLOS Pathogens, 2023)
Where “and” joins values, the source holds several entries; their conditions need not be identical. Identical values can stand only once. Like-named read-outs stand apart in the source and are kept apart here.

Biological target: T1, PfCRT^Dd2_F145I (Plasmodium falciparum, UniProt Q8IBZ9, A220S/F145I/I356T/K76T/M74I/N326S/N75E/Q271E/R371I)
T1 construct: expressed in transfected cells; host or cells: Xenopus laevis oocytes injected with in vitro transcribed RNA (pSP64T)
T1 sequence (Q8IBZ9 1-424 M74I/N75E/K76T/F145I/A220S/Q271E/N326S/I356T/R371I): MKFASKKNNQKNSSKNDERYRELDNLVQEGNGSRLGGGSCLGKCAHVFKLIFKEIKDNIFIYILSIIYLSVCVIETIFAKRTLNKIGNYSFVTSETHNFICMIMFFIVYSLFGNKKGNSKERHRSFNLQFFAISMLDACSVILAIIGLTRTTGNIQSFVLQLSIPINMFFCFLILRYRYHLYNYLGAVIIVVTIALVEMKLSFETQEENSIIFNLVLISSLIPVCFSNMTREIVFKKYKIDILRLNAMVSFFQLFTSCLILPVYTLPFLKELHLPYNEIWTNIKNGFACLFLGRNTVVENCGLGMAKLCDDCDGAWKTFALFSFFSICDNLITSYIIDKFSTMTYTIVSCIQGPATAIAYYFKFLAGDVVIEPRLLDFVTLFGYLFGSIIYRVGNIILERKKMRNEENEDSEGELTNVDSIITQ
Assay: Competition kinetics of drug transport (radiolabeled substrate plus cold inhibitor), PfCRT^Dd2_F145I-expressing oocytes
Type: cell-based
Conditions: for Vmax, maximal velocity of drug transport: global fit; for β, partiality factor: factor on transport of the labeled drug by the other drug
Description: To further characterize the kinetic relationship between CQ and PPQ, we performed a series of competition reactions. To this end, water-injected oocytes and PfCRT-expressing oocytes were incubated in medium containing one of seven concentrations of radio-labeled CQ and one of six concentrations of cold PPQ for 60 min before the amount of radio-labeled CQ uptake was determined. The rate of PfCRT-mediated CQ uptake was calculated for each condition by subtracting the corresponding value obtained for water-injected oocytes from those of PfCRT-expressing oocytes. The results were analyzed as a function of the CQ concentration (Fig 4A) and 16 different models of substrate competition were globally fit to the data by the least-squares method, using Python. The models were ranked, according to their Akaike information criterion difference (ΔAICC) and their Akaike weight (Fig 4B), with the most plausible model being the one with the lowest AICC (ΔAICC = 0) and the highest Akaike weight.
A complementary set of experiments was undertaken to investigate the kinetic mechanism by which PfCRT^Dd2_F145I accepts CQ and PPQ (Fig 6). […] These included a global fit of the substrate competition data to the 16 kinetic models (Fig 6), analysis of the secondary plots (Vmax,app and Vmax,app/KM,app as a function of the inhibitor concentration) (Fig 7A), a fractional velocity plot analysis (Fig 7B) and a comparison of the experimental data with the modelled data using the noncompetitive inhibition equation (Fig 7C to 7F). […] The fractional velocity plot illustrated the partial character of the noncompetitive inhibition mechanism by yielding a partiality factor β^CQ = 0.31 ± 0.04, by which PPQ reduces the transport velocity of CQ (Fig 7B). […] A 3D model of the kinetics between PfCRT^Dd2_F145I, CQ and PPQ, and analyses of the residuals as a function of substrate and inhibitor concentrations confirmed that the model was also an appropriate explanation for the mutant transporter (Fig 7C to 7F).
Drug transport assays were performed as previously described. Briefly, measurements of radiolabeled drug uptake were made over 1 h, unless otherwise specified. […] Where specified, one or more unlabeled drugs were also present at the indicated concentrations. The direction of drug transport in the assays is from the extracellular medium (pH 6) into the oocyte cytosol (pH 7.2), which corresponds to the efflux of CQ or PPQ from the acidic digestive vacuole (pH 5.2) into the parasite cytosol (pH 7.2). The uptake assays were terminated by removing the oocytes from the reaction medium and washing them three times with 2 mL of ice-cold ND96 buffer. Each oocyte was transferred to a separate scintillation vial and lysed by the addition of 200 μL of a 5% SDS solution. The radioactivity in the sample was measured using a liquid scintillation analyser Tri-Carb 4910 TR (PerkinElmer). Water-injected oocytes were analyzed in parallel as a negative control. The buffer from each condition was measured in duplicate in parallel to each experiment to transform counts per minute into pmol of drug. Drug uptake attributable to PfCRT was determined by subtracting the background uptake from water-injected oocytes from that of PfCRT-expressing oocytes. In all cases, at least three independent experiments were performed on oocytes from different frogs, and for each condition in an experiment, measurements were made from 10 oocytes per treatment.
The following equations were adopted from Segel (1993), and the reader is referred to that text for the assumptions made in the author’s approach in the derivation of each equation [31]. The concentration of substrate is denoted as [S1] and the concentration of the inhibiting substrate is denoted as [S2]. KS1 and KS2 are the dissociation constants for the respective substrate-protein complexes.
Analyses of the kinetic data were performed using SigmaPlot version 13.0 and Python. […]

Clc1ccc2c(N3CCN(CCCN4CCN(c5ccnc6cc(Cl)ccc56)CC4)CC3)ccnc2c1 [PPQ, piperaquine]
PfCRTDd2_F145I-mediated PPQ transport (500 µM PPQ, 400 µM CQ): 83.51 pmol oocyte-1 h-1 and 92.59 pmol oocyte-1 h-1
v / (Vmax - v) (1/[PPQ] 0.002000 µM-1): 0.4488
v / (Vmax - v) (1/[PPQ] 0.002857 µM-1): 0.4948
v / (Vmax - v) (1/[PPQ] 0.005000 µM-1): 0.5591
v / (Vmax - v) (1/[PPQ] 0.008000 µM-1): 0.7269
v / (Vmax - v) (1/[PPQ] 0.020000 µM-1): 0.8760
most plausible inhibition model (16 models, ΔAICC, Akaike weight, secondary plots): partial noncompetitive inhibition
Vmax, maximal velocity of drug transport (Mixed (Partial) model, drug as radiolabeled substrate): 150 ± 5 pmol oocyte^-1 h^-1
Kd (Mixed (Partial) model, drug as cold inhibitor, read-out: KS, dissociation constant for the PfCRT-substrate complex): 160 ± 40 µM
Kd (Mixed (Partial) model, drug as radiolabeled substrate, read-out: KS, dissociation constant for the PfCRT-substrate complex): 128 ± 11 µM
β, partiality factor (Mixed (Partial) model): 0.64 ± 0.09
α, KS interaction factor (Mixed (Partial) model, label = radiolabeled substrate, other drug cold inhibitor): 1.2 ± 0.3
Vmax, maximal velocity of drug transport (Noncompetitive (Partial) model, drug as radiolabeled substrate, other drug as cold inhibitor): 152 pmol oocyte^-1 h^-1 and 152 ± 4 pmol oocyte^-1 h^-1
Kd (Noncompetitive (Partial) model, drug as cold inhibitor, read-out: KS, dissociation constant for the PfCRT-substrate complex): 167 µM and 170 µM
Kd (Noncompetitive (Partial) model, drug as radiolabeled substrate, read-out: KS, dissociation constant for the PfCRT-substrate complex): 134 ± 8 µM
β, partiality factor (Noncompetitive (Partial) model): 0.61 and 0.61 ± 0.07
KMapp ([3H]PPQ + CQ) ([CQ] 0 µM): 124.39 µM
Vmaxapp ([3H]PPQ + CQ) ([CQ] 0 µM): 148.37 pmol oocyte-1 h-1
Vmaxapp/KMapp ([3H]PPQ + CQ) ([CQ] 0 µM): 1.1929 h⁻¹
KMapp ([3H]PPQ + CQ) ([CQ] 25 µM): 139.84 µM
Vmaxapp ([3H]PPQ + CQ) ([CQ] 25 µM): 149.64 pmol oocyte-1 h-1
Vmaxapp/KMapp ([3H]PPQ + CQ) ([CQ] 25 µM): 1.0701 h⁻¹
KMapp ([3H]PPQ + CQ) ([CQ] 50 µM): 130.94 µM
Vmaxapp ([3H]PPQ + CQ) ([CQ] 50 µM): 139.65 pmol oocyte-1 h-1
Vmaxapp/KMapp ([3H]PPQ + CQ) ([CQ] 50 µM): 1.0665 h⁻¹
KMapp ([3H]PPQ + CQ) ([CQ] 125 µM): 131.31 µM
Vmaxapp ([3H]PPQ + CQ) ([CQ] 125 µM): 130.07 pmol oocyte-1 h-1
Vmaxapp/KMapp ([3H]PPQ + CQ) ([CQ] 125 µM): 0.9905 h⁻¹
KMapp ([3H]PPQ + CQ) ([CQ] 200 µM): 138.10 µM
Vmaxapp ([3H]PPQ + CQ) ([CQ] 200 µM): 125.38 pmol oocyte-1 h-1
Vmaxapp/KMapp ([3H]PPQ + CQ) ([CQ] 200 µM): 0.9079 h⁻¹
KMapp ([3H]PPQ + CQ) ([CQ] 400 µM): 147.48 µM
Vmaxapp ([3H]PPQ + CQ) ([CQ] 400 µM): 117.65 pmol oocyte-1 h-1
Vmaxapp/KMapp ([3H]PPQ + CQ) ([CQ] 400 µM): 0.7978 h⁻¹
Kd (secondary plot, half-maximal inhibitory concentration of Vmax,app versus inhibitor concentration, read-out: αKS, dissociation constant between the drug and the PfCRT complex with the other drug): 170 ± 30 µM
Kd (secondary plot, half-maximal inhibitory concentration of Vmax,app/KM,app versus inhibitor concentration, read-out: KS, dissociation constant between the drug and PfCRT): 170 ± 50 µM
α (αKS divided by KS) (secondary plots, label = prebound drug): 0.8 ± 0.7
